2 molecules from publication PMC1810525, “Antagonism of the prostaglandin D2 receptor CRTH2 attenuates asthma pathology in mouse eosinophilic airway inflammation” (Respiratory Research, 2007) can be followed below.

In assay [1] the test system is OVA-challenged BALB/c mice. The experiment in a line: Mouse model of allergic asthma (OVA), bronchoalveolar lavage eosinophils. It counts as in vivo. As to conditions: 5 mg/kg orally twice daily, 24 hr after second challenge, allergen/vehicle 1.0 ± 0.2 %. The source says: Female BALB/c mice about 6 weeks of age (MoB A/S; Ry, Denmark) were kept in well-controlled animal housing facilities and fed ad libitum. The study was approved by the Regional Ethics Committee in Malmoe-Lund, Sweden. […] Sigma) at day 0 as described previously. […] Control animals received saline challenge. Animals were sacrificed 24 hr after the last allergen challenge by pentobarbital i.p followed by bronchoalveolar lavage (BAL) and lung tissue sampling. In preliminary studies it was ascertained that daily allergen challenges for only a few days sufficed to produce a significant airway tissue eosinophilia as well as goblet cell hyperplasia. On days 14 and 15 mice were treated twice daily with TM30089 and ramatroban (BAY3405), 5 mg/kg orally. […] Drugs were administered 30 minutes before and 4 hr after each challenge. The dose of ramatroban was selected in accord with previous reports. […] The total number of cells was quantified using a […] (NucleoCounter®, Chemometec A/S, Allerod, Denmark) and 5 × 10^5 cells cytocentrifuged to microscope slides. Differential cell counts were performed on May-Grünwald Giemsa stained slides and percentage of eosinophils, lymphocytes, neutrophils, and macrophages determined by counting 200–300 cells in a blinded manner. […]

In assay [2] the target is T1, mTP (Mus musculus, UniProt P30987).
T1 construct: expressed in transfected cells; host or cells: HEK293 (transient, pcDNA3.1(+))
T1 sequence (P30987 1-341): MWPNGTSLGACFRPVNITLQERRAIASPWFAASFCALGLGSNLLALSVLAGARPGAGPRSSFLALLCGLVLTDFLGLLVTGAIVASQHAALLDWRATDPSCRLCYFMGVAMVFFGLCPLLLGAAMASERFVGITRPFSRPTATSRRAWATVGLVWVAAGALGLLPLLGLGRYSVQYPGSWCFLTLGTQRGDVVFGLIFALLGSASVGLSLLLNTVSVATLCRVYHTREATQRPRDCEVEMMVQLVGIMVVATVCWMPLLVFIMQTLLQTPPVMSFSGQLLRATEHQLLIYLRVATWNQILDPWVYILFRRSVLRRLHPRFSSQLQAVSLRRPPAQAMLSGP
The experiment in a line: Inositol phosphate accumulation assay, HEK cells transfected with mTP (Schild analysis vs U46619). The assay is classed as cell-based. The source says:
The coding sequence of mCRTH2 (genbank accession no. AF054507) was amplified by PCR from mouse hippocampus cDNA and inserted into the pcDNA3.1(+) expression vector (invitrogen). A HEK293 cell line, stably expressing mCRTH2 (hereafter referred to as mCRTH2-HEK cells) was generated under G418 (Gibco #11811) selection and used as described below in whole cell binding and functional inositol phosphate accumulation assays. The coding sequence of mTP (genbank accession no. D10849) was amplified by PCR from mouse spleen cDNA and inserted into pcDNA3.1(+). HEK293 cells were transiently transfected with mTP as described and assayed after 48 hr as outlined below.
mCRTH2-HEK or HEK cells transiently transfected with mTP were seeded at a density of 30.000 cells/well in poly-D-lysine coated 96-well tissue culture plates and labeled by overnight incubation in medium containing 5 μCi myo- [2-^3H]-inositol (TRK911, Amersham Biosciences). After washing, cells were stimulated with the respective ligands in the presence of 5 mM LiCl (HBSS, GIBCO cat. 14025–050, 45 min, 37°C) and the inositol phosphate fraction was quantified using a scintillation proximity assay (SPA) as described previously. To facilitate inositol phosphate generation by the Gi-selective CRTH2 receptor, mCRTH2-HEK cells were transiently transfected with a promiscuous Gα protein [29].
was performed using the Prism 3.0 software (GraphPad Software, San Diego) as described previously with the following exceptions: Binding data from competition binding assays were normalized to percent of specific binding of [^3H]PGD2 or [^3H]SQ29548 and the Ki was then determined using the Cheng-Prusoff equation Ki = IC50/(1+L/Kd), where L is the concentration of radioactive ligand and Kd is its dissociation constant. For Schild analysis, global fitting using the Gaddum/Schild competitive interaction model was applied after the functional concentration-response curves for the agonists PGD2 or U46619 in the absence or presence of various antagonist concentrations were normalized to percent of the maximal response obtained by agonist alone.

In assay [1], `CN(C1CCc2c(c3ccccc3n2CC(=O)O)C1)S(=O)(=O)c1ccc(F)cc1` (centres unmarked) [TM30089] had a BALF eosinophils of 0.5 ± 0.01%. Moreover, the “effect on signaling of mTP” value in assay [2] (InsP functional assay) was “does not interfere with signaling of mTP”.

`O=C(O)CCn1c2c(c3ccccc31)C[C@H](NS(=O)(=O)c1ccc(F)cc1)CC2` [ramatroban, reference compound]: the BALF eosinophils in assay [1] worked out at 0.4 ± 0.01%. For the same molecule, in assay [2] (Schild analysis, U46619 concentration-response, InsP), the “Schild slope mTP” value turned out to be 1.35 ± 0.06. In assay [2] (Schild analysis, U46619 concentration-response, InsP, read-out: pA2 mTP (converted)), the Kb is 0.437 nM.
